In patent US9073885B2, “Vitamin D3 lactone derivatives” (Teijin Pharma Limited, priority 2003, dated 2015):

Tested on: HL-60 cells
Assay: Vitamin D3 antagonist action: inhibition of HL-60 cell differentiation induced by 1α,25-dihydroxyvitamine D3 (NBT reducing activity)
Type: cell-based
Conditions: Homo sapiens, HL-60, 96 h, inhibition of NBT reducing activity induced by 1×10^-8 M 1α,25-dihydroxyvitamine D3, 4 days
Text: The Vitamin D3 Antagonist Action Determined by Using the Induction of HL-60 Cell Differentiation by 1α,25-dihydroxyvitamine D3 as an Indicator
(1) HL-60 cells that were purchased from a cell bank (Japanese Cancer Research Resources Bank, Cell No. JCRB0085) were used. The cells were maintained as a frozen preservation stock to prevent changes in cellular characteristics by subculture. The stock was thawed before starting the experiment, and the cells which subsequently initiated subculture were used. The cells with subcultivation approximately over one month to a half year were used for the experiment. The subcultivation was performed by first centrifuging and collecting cells in suspension culture, and then diluting the collected cells by approximately a factor of 100 to a concentration of 1×10^4 to 2×10^4 cells/ml in a fresh culture medium. An RPMI-1640 medium with 10% fetal bovine serum was used as the culture medium. […]
(3) The induction of nitroblue tetrazolium (hereinafter referred to as NBT) reducing activity was used as an indicator of the induction of HL-60 cell differentiation. The NBT reducing activity was measured according to the procedures described below. […]

IC50: < 10 nM
Structure (SMILES): C=C1C(=O)OC(C[C@@H](C)[C@H]2CC[C@H]3/C(=C/C=C4/C[C@@H](O)C[C@H](O)C4=C)CCC[C@]23C)C1CCO (stereo partly drawn) [Compound No. 114a, 20(R)-(tetrahydro-3-methylene-2-furanone-4-(2-hydroxyethyl)-5-yl)methyl-9,10-secopregna-5(Z),7(E),10(19)-triene-1α,3β-diol]
